Measurements taken from patent publication US11771124B2, “Composition comprising mannose oligosaccharide and process for making same and use thereof” (CARGILL, INCORPORATED, priority 2017, dated 2023).
Marks after values point to notes of the source that are not given here.

Experiments:
[1] = Trial 3: broiler performance with or without chlortetracycline; assay type: in vivo, broiler chickens; conditions: Composition A dose 0.02%
C2Be1 cell line = assay: Intestinal cell proliferation in vitro (BrdU ELISA); assay type: cell-based
Experimental: Cells were treated with products under serum-limited conditions for 4-5 days. BrdU ELISA is used to measure the amount of proliferation, where it measures the amount of BrdU incorporated into proliferating cells (the more proliferation, the more BrdU that will be detected in the DNA of the cells). Levels of proliferation are expressed as a ratio calculated by dividing the BrdU incorporation of test wells by that of the controls that has medium only. […] The assay is repeated in triplicate on two separate occasions. […]

| Compound | BW35 ([1]; broiler chickens up to 35 days of age) | ADFI 0-35 ([1]; broiler chickens) [c g] | ADG 0-35 ([1]; broiler chickens) | BW0 ([1]; broiler chickens) | F:G 0-35 ([1]; broiler chickens) | % compared to media only (control), Mean (C2Be1 cell line; EGF concentration 10) [%] | Proliferation Ratio (relative to control = 1), Mean (C2Be1 cell line; EGF concentration 10) | % compared to media only (control), Mean (C2Be1 cell line; EGF concentration 100) [%] | Proliferation Ratio (relative to control = 1), Mean (C2Be1 cell line; EGF concentration 100) |
| --- | --- | --- | --- | --- | --- | --- | --- | --- | --- |
| CN(C)[C@@H]1C(O)=C(C(N)=O)C(=O)[C@@]2(O)C(O)=C3C(=O)c4c(O)ccc(Cl)c4[C@@](C)(O)[C@H]3C[C@@H]12 [CTC, chlortetracycline] | 1978.6^b g | 90.8 | 55.4^b g | 40.2^ns g | 1.64^b |  |  |  |  |
| EGF: epithelial growth factor, positive control known to affect cell proliferation |  |  |  |  |  | 113.5 | 1.13 | 119.6 | 1.20 |
